Measured values as given in patent US7842700B2, “Crystals of isopropyl ester of N-(2,6-dichlorobenzoyl)-4-[6-(methylamino)methyl-1-methyl-2,4-dioxo-1,4-dihydroquinazoline-3(2H)-yl]-L-phenylalanine hydrochloride, production method thereof and use thereof” (Ajinomoto Co., Inc., priority 2005, dated 2010).

Key:
[1] = test system: lymphocytes in the peripheral blood; test: Activity to elevate the number of lymphocytes in the peripheral blood in a rat; format: in vivo; conditions: 30 mg/kg oral, male Wistar rats, 12 hours after administration, control = 100%
Method: Activity to Elevate the Number of Lymphocytes in the Peripheral Blood in a Rat
Therefore, the activity of the compound of the formula (I) to elevate the number of lymphocytes in the rat was examined.
The dosing solution was prepared by dissolving the compound of the formula (I) in dimethylsulfoxide, adding a mixed solution of polyethylene glycol 400: propylene glycol=1:1 thereto and turning it upside and down repeatedly. The final concentration of DMSO was adjusted to 2.5%.
The dosing solution of a test substance (30 mg/kg) was orally administered to male Wistar rats (6 to 8 weeks age) in the amount of 4 mL/kg. After the settled time points after the administration, the blood was drawn from the abdominal large vein under anesthesia and mixed in an EDTA-2K coated container for blood collection. Then, the number of lymphocytes in the peripheral blood was determined by an automated comprehensive hematology analyzer (SF-3000, Sysmex). The test was conducted in n=5, and the ratio (%) of the number of lymphocytes in the peripheral blood in a test substance-administered group to that in a vehicle-treated group (a control group) was calculated while the average value of the number of lymphocytes in the peripheral blood in a control group was determined to be 100%.

[2] = Powder X-ray diffraction measurement under the control of relative humidity; format: physicochemical; conditions: dry: 50° C. under reduced pressure; wet: 85% relative humidity
Method: Powder X-Ray Diffraction Measurement Under the Control of Relative Humidity
The powder X-ray diffraction of each of crystal form Cl5 and crystal form Mal2 was measured in the following condition, and the diffraction patterns between dry one and wet one were compared. However, there was no difference thereof in each crystal.
Drying condition (dry): measurement of a sample with drying it at 50° C. under reduced pressure
Humid condition (wet): measurement of a sample under 85% relative humidity
Powder diffractometer: RINT2100S by RIGAKU (and a temperature and humidity attachment for said diffractometer) Humidity generator: SRH-1R Shinei Co., Inc.

[3] = Preservation stability test; format: physicochemical; conditions: 4 weeks; 40° C./75% relative humidity opened, 60° C./opened, vs room temperature/closed control
Method: Preservation Stability Test
Crystal form Cl5, crystal form Br5 and crystal form A were preserved in the following condition, and then the amount of impurities in each sample was compared. However, the increase in the impurities by heating was not observed.
• 40° C./75% relative humidity—opened • 60° C./opened • Room temperature/closed (control)

| difference of powder X-ray diffraction patterns between dry and wet [2] | increase in the impurities by heating [3] | Structure (SMILES) | ratio (%) of the number of lymphocytes in the peripheral blood to that in a vehicle-treated group [1] |
| --- | --- | --- | --- |
| – | – | CNCc1ccc2c(c1)c(=O)n(-c1ccc(C[C@H](NC(=O)c3c(Cl)cccc3Cl)C(=O)OC(C)C)cc1)c(=O)n2C [compound of the formula (I), isopropyl ester of N-(2,6-dichlorobenzoyl)-4-[6-(methylamino)methyl-1-methyl-2,4-dioxo-1,4-dihydroquinazoline-3(2H)-yl]-L-phenylalanine] | ≥ 150% |
| no difference | not observed | CNCc1ccc2c(c1)c(=O)n(-c1ccc(C[C@H](NC(=O)c3c(Cl)cccc3Cl)C(=O)OC(C)C)cc1)c(=O)n2C [crystal form Cl5] | – |
